Assay results published in PMC7814043, “Pan RAS-binding compounds selected from a chemical library by inhibiting interaction between RAS and a reduced affinity intracellular antibody” (Scientific Reports, 2021).

How the values were obtained:
[1] = target: T1, HRAS^G12V-GTP / scFv RASdm interaction (Homo sapiens, UniProt P01112, G12V); assay: AlphaScreen of interaction between GST-HRAS^G12V-GTPγS and His-tagged scFv RASdm; format: biochemical; settings: dose-response Alpha assay
T1 construct: made in house; host or cells: E. coli C41(DE3)
Text: An AlphaScreen assay was established with GST-HRAS^G12V-GTP bound to GST-beads and HIS-tagged scFv RASdm bound to nickel-beads. The Alpha assay comprised interaction of anti-RAS and HRAS proteins and signal from the acceptor beads generated after excitation of the donor nickel-beads (depicted in Supplementary Fig. 3A). […] The interactions were optimized for protein concentrations linked to the donor and acceptor beads (Supplementary Fig. 3C,D). The interaction of HRAS^G12V-GTP with the dematured anti-RAS scFv was robust (Supplementary Fig. 3D) yielding Z factors of 0.74–0.85 being considered suitable for high throughput screen. […]
The AlphaScreen assay (Perkin Elmer) was performed in a 8 μl final volume in 1536-well white microtiter plates (Greiner). […] Exposure of the reaction to direct light was avoided and the emission of light from the acceptor beads was measured in the EnVision plate reader (Perkin Elmer) and analyzed using the EnVision manager software. […]
Panel A: AlphaLISA glutathione (GSH) acceptor beads were used to capture GST-HRAS loaded with GTPγS (Ag). […] Following incubation, nickel (Ni) chelate donor AlphaLISA beads were added and the chemiluminescence signal detected on an PE Envision plate reader. […]

[2] = target: T2, non-mutated anti-RAS scFv / HRAS^G12V interaction (Homo sapiens, UniProt P01112, G12V); assay: Alpha assay of non-mutated anti-RAS scFv with HRAS^G12V (identical protocol, unpublished data); format: biochemical
T2 construct: made in house; host or cells: E. coli C41(DE3)
Text: We have used the RAS protein as a target for this method as this was previously regarded as undruggable[9]–[11]. We provide further evidence of RAS druggability and that antibody binding sites can be employed to select small molecules for drug discovery as starting chemical matter for medicinal chemistry drug development campaigns. Compound A (Fig. 3A) is a heterocycle that would require crystal soaking to facilitate structure-based drug design to place this on a formal drug development programme. […] Further, the low Kd in SPR (Fig. 4), lack of inhibitory effect in Alpha controls (Fig. 3) argue against chemical reactivity as the reason for the Alpha assay inhibition. […] The low binding strength of these initial library hits, in turn resulting from the small size of the chemical library used, would preclude meaningful cell-assays at this stage.

NRAS-GPPNHP = NRAS-GPPNHP (Homo sapiens, UniProt P01111); assay: SPR of compound on biotinylated RAS isoform (streptavidin chip); format: binding
[3] = tested on: KRAS, HRAS and NRAS-GTP proteins; assay: SPR over the three RAS isoforms (average / overall)
Experimental: Accordingly, we used SPR to determine direct RAS-binding and because the anti-RAS intracellular antibody interacts with the three isoforms of activated RAS[3], we assessed if the compounds also show a pan-RAS binding.
The protein extracts were loaded with GPPNHP (a non-hydrolysable GTP analogue) as described[19] and biotinylated by incubation with BirA overnight at 4 °C. […] SPR experiments were performed using BIAcore T100 (GE Healthcare). […] The chip was prepared with 3 × 30 s injections of 1 M NaCl/50 mM NaOH at 10 µL/min flow rate, before biotinylated RAS proteins were injected at 25 µg/mL with 10 µL/min flow rate until 4000–5000 RU protein was captured.

HRAS-GPPNHP = HRAS-GPPNHP (Homo sapiens, UniProt P01112); assay: SPR of compound on biotinylated RAS isoform (streptavidin chip); format: binding
dopamine D1 receptor = settings: cited from earlier work
KRAS^G12V-GPPNHP = KRAS^G12V-GPPNHP (Homo sapiens, UniProt P01116, G12V); assay: SPR of compound on biotinylated RAS isoform (streptavidin chip); format: binding

T1 sequence (P01112 whole entry G12V): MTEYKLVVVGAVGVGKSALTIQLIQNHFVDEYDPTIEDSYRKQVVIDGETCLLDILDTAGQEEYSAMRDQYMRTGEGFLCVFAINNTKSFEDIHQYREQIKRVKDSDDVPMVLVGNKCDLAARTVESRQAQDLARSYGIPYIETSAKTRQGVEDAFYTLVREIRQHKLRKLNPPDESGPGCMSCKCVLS
Sequence of NRAS-GPPNHP (P01111 1-166): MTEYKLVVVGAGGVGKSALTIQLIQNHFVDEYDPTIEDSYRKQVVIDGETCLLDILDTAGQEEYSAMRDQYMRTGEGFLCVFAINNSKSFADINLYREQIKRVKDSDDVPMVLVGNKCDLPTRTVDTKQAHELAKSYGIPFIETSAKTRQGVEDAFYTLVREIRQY
Sequence of HRAS-GPPNHP (P01112 1-166): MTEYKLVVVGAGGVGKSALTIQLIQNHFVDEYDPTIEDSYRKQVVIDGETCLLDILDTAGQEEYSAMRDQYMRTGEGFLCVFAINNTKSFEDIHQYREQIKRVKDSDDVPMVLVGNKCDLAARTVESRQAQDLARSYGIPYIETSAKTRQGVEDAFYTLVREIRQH
T2 sequence (P01112 whole entry G12V): as the sequence (P01112 whole entry G12V) above

Row | SMILES | IC50 [1] | inhibition of interaction between non-mutated anti-RAS scFv and HRAS^G12V [2] | Rmax (NRAS-GPPNHP; Figure 4F) | Kd (NRAS-GPPNHP; NRAS) | response in SPR analysis ([3]; KRAS, HRAS and NRAS proteins) | Kd ([3]; read-out: average Kd, average over KRAS, HRAS and NRAS) | Rmax (HRAS-GPPNHP; Figure 4E) | Kd (HRAS-GPPNHP; HRAS) | dopamine D1 receptor activity (dopamine D1 receptor) | Rmax (KRAS^G12V-GPPNHP; Figure 4D) | Kd (KRAS^G12V-GPPNHP; KRAS)
1 | CCCn1c(=O)c2[nH]c(C3CCCC3)nc2n(CCCOC(=O)c2ccc(S(=O)(=O)F)cc2)c1=O [Compound A, 8-Cyclopentyl-3-(3-((4-(fluorosulfonyl)benzoyl)oxy)propyl)-1-propylxanthine] | 2 µM | no inhibition | – | – | – | – | – | – | – | – | –
2 | CN1Cc2ccccc2C2c3cccc4[nH]cc(c34)CC21 (stereo not drawn) [compound B, 4,6,6a,7,8,12b-hexahydro-7-methylindolo(4,3-ab)-phenanthridine] | 6 µM | – | 6.8 RU | 35 µM | low response | 37 µM | 3.5 RU | 30 µM | weak dopamine D1 receptor agonist | 6.7 RU | 47 µM
